According to patent US10611799B2, “Anti-endotoxin polypeptide” (priority 2017, dated 2020):
Entries after “also recorded” stand apart in the source; their conditions may differ. No end group written: not given here.

Tests used:
[1] = tested on: gram-positive and negative bacteria; assay: Antibacterial activity and salt resistance, broth microdilution (MIC); assay type: cell-based
Experimental: (§1) The antibacterial activities were determined by the standard broth microdilution method of National Committee for Clinical Laboratory Standards with the MH and LYM broth. MH or LYM broth with 50, 100, 200, or 300 mM NaCl (containing 5.4 mM KCl, 5.6 mM Na2HPO4, 0.5 mM MgSO4, and 1.0 mM sodium citrate, 0.4 mg of ZnCl2, 2.0 mg of FeCl3.6H2O, 0.1 mg of CuSO4.5H2O, 0.1 mg of MnSO4.H2O, 0.1 mg of Na2B4O7.10H2O, 700 mg of amino acid mixtures without tryptophan (Clontech), and 20 mg of L-Tryptophan, 2% vitamin mixture (100×, Sigma) and glucose at final concentration of 2%) were used to serially dilute the anti-endotoxin polypeptide of the present invention to obtain anti-endotoxin polypeptide solutions with a concentration ranging from 3,200 to 100 μg/mL.
(§2) 1 μL of peptide solutions were mixed with 99 μL inoculums (5×10^5 CFU/mL) in polypropylene 96-well plates, respectively. The turbidity at OD600 nm was determined by ELISA plate reader (Thermo Max, Molecular Devices, Sunnyvale, Calif.). The absorbance of culture medium and inoculum without peptides were used as the negative and positive control, respectively. […] All peptides were tested in triplicate. […] KR12AGPKR6 peptide was very effective against bacteria in LYM broth condition (MIC=about 2 μg/mL).

Acinetobacter sp. = assay: Antibacterial activity, broth microdilution, Acinetobacter sp.; assay type: cell-based
Experimental: as §1, §2

[2] = tested on: LPS (Control Standard Endotoxin); assay: Binding and neutralization of LPS, Limulus Amebocyte Lysate (LAL) assay; assay type: biochemical; settings: peptide 8-128 μg/mL, CSE 5EU
Experimental: The abilities of the anti-endotoxin polypeptides to bind and neutralize LPS were assessed using Limulus Amebocyte Lysate (LAL) assay (Cape Cod Inc, East Falmouth, Mass., USA). 25 μL of different peptide concentration (128, 64, 32, 16, and 8 μg/mL) were mixed with 25 μL CSE (Control Standard Endotoxin) (5EU) in a 96-well plate, and 50 μL of Pyrochrome® reagent was added to wells immediately. The absorbance at 405 nm was measured by microplate reader at 37° C. for 25 minutes.

Cytotoxicity, MTT assay = assay type: cell-based; settings: mouse, J744A.1 cells, 64 μg/mL, read-out: survival rate
Experimental: In this embodiment, the cytotoxicity was evaluated by MTT assay. J744A.1 cells were seeded in a 96-well plate with 10^4 cells/100 μL/well and incubated for 24 hours. After removing the medium, 100 μL of fresh medium containing anti-endotoxin polypeptide (2 to 64 μg/mL) was added to the wells. After 24 hours incubation, the fresh medium with 0.5 mg/mL MTT was added and incubated for 3 hours. After the medium/MTT was removed, DMSO was added at 100 μL for dissolving the formazan crystal. Cell survival rate was calculated by measuring the absorbance at 450 nm using Multi-labeled Microplate Reader (VICTOR 3).

[3] = Peptide-induced calcein leakage of POPC/LPS LUVs
Experimental: (§3) In this embodiment, the large unilamellar vesicles (LUVs) of POPC/LPS (POPC:LPS=12.5:1 mol/mol), POPC/cholesterol (POPC:cholesterol=2:1 mol/mol), and POPC:POPG (POPC:POPG=3:1 mol/mol) were prepared by the extrusion method with Avanti small-volume extrusion apparatus (Avanti Polar Lipid). Calcein-filed LUVs were prepared by calcein-containing buffer (70 mM calcein and 10 mM Tris at pH 7.4). Peptide-induced calcein leakages were measured by Perkin-Elmer luminescence spectrofluorimeter at excitation and emission wavelengths of 496 and 515 nm, respectively. Leakage is expressed as a percentage relative to the total amount of dye released by addition of 100 mg/mL of Triton X-100, which represented 100% leakage (the maximum fluorescence intensity).
(§4) The degree of leakage induced by various concentrations of polypeptides was estimated by: % leakage=(F−F0)/(Fr−F0)×100%, wherein the F0 is the initial fluorescence intensity observed without peptide, and Fr is the fluorescence intensity of 100% leakage.

[4] = Peptide-induced calcein leakage of POPC/POPG LUVs
Experimental: as §3, §4

[5] = LPS aggregation, dynamic light scattering; settings: peptide 8 and 16 μg/mL, LPS 25 μM
Experimental: The LPS molecule were dissolved in chloroform:methanol (2:1) then the stock solution was sonicated at 40° C. for 20 minutes and then kept at 4° C. overnight. The stock solution were diluted to 25 μM by using 20 mM sodium phosphate buffer with 150 mM sodium chloride and then at 4° C. overnight for use. Peptide concentration was diluted to 8 or 16 μg/mL. After the LPS solution was interacted with the peptide solution, the particle size and distribution analysis was measured by dynamic light scattering in Malvern Zetasizer ZS (Malvern, UK).

[6] = POPC/LPS LUVs aggregation, dynamic light scattering; settings: peptide 8 and 16 μg/mL
[7] = tested on: NO production in J744A.1 cells; assay: Inhibition of LPS-induced NO production (Griess reagent); assay type: cell-based; settings: LPS 150 ng/mL, peptide 2-32 μg/mL, 24 hours
Experimental: (§5) J744A.1 cells (3×10^5 cells) were seeded in a 24-well plate and incubated for 24 hours. Cells were washed by PBS and LPS (E. coli 026:B6 (SIGMA, 150 ng/mL)) and the anti-endotoxin polypeptide of the present invention (2-32 μg/mL) were added to the wells. After 24 hours treatment, culture supernatant was harvested and centrifuged at 1,000 rpm for 10 minutes. 50 μL of culture supernatant was mixed with 50 μL Griess reagent (SIGMA) in a 96-well plate and incubated at room temperature for 10 minutes. The absorbance at 540 nm was measured and the NO concentration was calculated. Additionally, the concentration of TNF-α in the culture supernatant was evaluated using ELISA kits (eBiosciences).

[8] = tested on: TNF-α release in J744A.1 cells; assay: Inhibition of LPS-induced TNF-α release (ELISA); assay type: cell-based; settings: LPS 150 ng/mL, peptide 2-32 μg/mL, 24 hours
Experimental: as §5

[9] = tested on: E. coli O26:B6 LPS-induced endotoxemia; assay: Mouse model of endotoxemia; assay type: in vivo, C57BL/6 mice; settings: 18 mg/kg LPS plus 10 mg/kg peptide i.p.
Experimental: 5-week old male C57BL/6 mice were purchased from National Laboratory Animal Center (Taiwan). Mice were divided into three groups (five in each group) with intraperitoneal (i.p.) injection of (a) 18 mg/kg of body weight E. coli O26:B6 LPS, (b) 18 mg/kg body weight LPS plus 10 mg/kg peptide, and (c) no treatment. Blood was collected via tail vein 1.5 hours after injection. Whole blood was centrifuged at 3,000 rpm at 4° C. for 10 minutes. After 24 hours, all mice were sacrificed. The lungs were removed and fixed in 4% formaldehyde buffer, and deparaffinized in UltraClear buffer (J. K. Baker) and graded ethanol. Histology of lung sections was performed by hematoxylin and eosin (H&E) staining. Tissue images were captured using light microscope (Eclipse E400, Nikon) with digital microscopy camera (AxioCam ICc 5, ZEISS).

[10] = relative to Triton X-100 = 100%

Row | Substance | minimum inhibitory concentration (MIC) ([1]; high salt conditions) | antibacterial effectiveness compared to other bacteria strain (Acinetobacter sp.) | LPS-neutralizing activity (LAL assay) [2] | viability at 24 h, 64 µg/mL (Cytotoxicity, MTT assay) | calcein leaking activity [3] | calcein leakage [3, 10] | calcein leaking activity [4] | calcein leakage [4, 10] | LPS aggregation and particle size [5] | POPC/LPS LUVs aggregation and particle size [6] | inhibition of NO production [7] | inhibition of TNF-α release [8] | level of TNF-α in blood ([9]; blood 1.5 hours after injection) | proliferation of alveolar epithelial cells and pulmonary hemorrhage (lung histology) ([9]; lungs after 24 hours, H&E) | antibacterial activity ([1]; MH or LYM broth) | antibacterial activity ([1]; 300 mM salt condition) | antibacterial activity ([1]; 200 mM NaCl) | antibacterial activity ([1]; low NaCl condition)
1 | Ac-KRIVQRIKDFLRAGPRRWWRW-NH2 (N-terminus and C-terminus assumed) [KR12AGPWR6] | 2 to 4 µg/mL | more effective | better LPS-neutralizing activity; also recorded: neutralize downstream reaction dose-dependently | ~70% | show leaking activities; also recorded: does-dependent calcein leaking activities | about 80% | show leaking activities; also recorded: does-dependent calcein leaking activities | ~70% | promoted | promoted | inhibit concentration-dependently | inhibited | significantly lower; also recorded: suppress | significantly decreased; also recorded: improve |  |  |  | 
2 | KRIVQRAGPIKDFLR (The anti-endotoxin polypeptide synthesized from the laboratory) [KR15AGP] |  |  | only small effects |  |  |  |  |  | did not aggregate LPS and change particle size |  |  |  |  |  | did not show any activity |  |  | 
3 | KRIVQRIKDFLRAGPIKDFLR [KR12AGPKR6] |  | more effective | only small effects |  | show leaking activities; also recorded: does-dependent calcein leaking activities |  | show leaking activities; also recorded: does-dependent calcein leaking activities |  | did not aggregate LPS and change particle size |  |  |  |  |  |  | inactive totally |  | 
4 | KRIVQRIKDFLRAGPRRLVRI (The anti-endotoxin polypeptide synthesized from the laboratory) [KR12AGPVR6] |  | more effective | only small effects |  | show leaking activities; also recorded: does-dependent calcein leaking activities |  | show leaking activities; also recorded: does-dependent calcein leaking activities |  | did not aggregate LPS and change particle size |  |  |  |  |  |  |  | lost its activities | high activities
